Columns and labels:
[1] = system: T. cruzi intracellular amastigotes in H9c2 cells; assay: Rate-of-Kill (RoK) high-content imaging assay, amastigotes per cell (AM/CELL) and curve descriptors; format: cell-based, Trypanosoma cruzi; set-up: key to ME_24h / ME_48h / ME_72h: % reduction in parasite burden (cidal response); t50pct_MCC50 / t50pct_Cmax: unit not given here; details: for ME_24h: 24h; for ME_48h: 48h; for ME_72h: 72h; for AM/CELL NORM: sheet figure 4 A; for t50%_Cmax / tlag_Cmax / t50pct_Cmax: at Cmax; for ME_24h (%): maximum effect at 24 h; for ME_24h (%) / ME_48h (%) / ME_72h (%): RoK assay; for ME_48h (%): maximum effect at 48 h; for ME_72h (%): maximum effect at 72 h; for ME 24h (maximum effect at 24 hours, intracellular amastigotes): maximum percentage of parasite burden reduction reached by any concentration
Method in brief: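 Readouts at each time point are amastigotes per cell and host nuclei count (cytotoxicity), from DRAQ5 high-content imaging. Infection: trypomastigotes on H9c2 at MOI 8 for 18 h. Dosing was 5 μM single point or 11 points, 1/3 steps from 50 μM. Effect scaled between 4 h infected and uninfected controls.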

[2] = system: T. cruzi Tulahuen trypomastigotes; assay: T. cruzi trypomastigote assay (Cell Titer-Glo viability, ATP luminescence); format: cell-based, Trypanosoma cruzi; details: for Trypomastigotes pIC50 48 hours: 48 hours incubation; for Trypomastigotes pIC50 48 hours / Trypomastigotes pIC50 72 hours: pIC50 = -log10 IC50 in molar units; for Trypomastigotes pIC50 72 hours: 72 hours incubation; for 72 pIC50 (trypomastigotes, raw data of Fig 1D): 72 hours, plotted values, censored values given without sign; for 48 pIC50 / 72 pIC50: trypomastigote assay; for 48 pIC50: 48 h; for 72 pIC50: 72 h
Method in brief: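 Compounds were tested in dose response or once at a final 5 μM against 5 × 10^4 trypomastigotes per well (DMEM, 2% FBS), collected on days 5–8 from LLC-MK2 infected cultures. ATP luminescence via CellTiter-Glo reports live parasites; DMSO defines 0% and cell-free wells 100% effect.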

| SMILES | ME_24h ([1]; figure 5) | ME_48h ([1]; figure 5) | ME_72h ([1]; figure 5) | MCCE ([1]; RoK curve descriptor) [µM] | AM/CELL NORM ([1]; Time 4) | AM/CELL NORM ([1]; Time 24) | AM/CELL NORM ([1]; Time 48) | AM/CELL NORM ([1]; Time 72) | tlag_Cmax [1] [h] | t50pct_Cmax ([1]; figure 5) | tlag_Cmax ([1]; figure 5) | t50pct_MCC50 ([1]; at MCC50, figure 5) | tlag_MCC50 ([1]; at MCC50, figure 5) | MCCE ([1]; figure 5) | ME_24h (%) [1] [%] | ME_48h (%) [1] [%] | ME_72h (%) [1] [%] | ME 24h (maximum effect at 24 hours, intracellular amastigotes) [1] [%] | Trypomastigotes pIC50 48 hours [2] | Trypomastigotes pIC50 72 hours [2] | further results |
| --- | --- | --- | --- | --- | --- | --- | --- | --- | --- | --- | --- | --- | --- | --- | --- | --- | --- | --- | --- | --- | --- |
| COc1ccccc1-c1c(C)[nH]c2nc(N)nc(C)c12 [TCMDC-143610] | 50.657 | 69.1206 | 72.4769 | 0.3 | 4.093 | 33.8882 | 64.2982 | 71.534 | 4.0 | 54 | 4 | 48 | 4 | 0.3086 | 44.7 | 65.4 | 70.3 | 71.8108 | 6.4 | 6.5 | ME (maximum effect) in RoK assay (in words) [1]: high values in ME at the different times; tlag (in words) [1]: short tlag; MCC50 ([1]; RoK curve descriptor): 2.4 µM; t50%_Cmax [1]: 48.0 h; t50%_MCC50 ([1]; at MCC50): 52.8 h; tlag_MCC50 ([1]; at MCC50): 4.0 h; MCC50 ([1]; figure 5, in µM): 1.543; activity in trypomastigotes assay (in words) ([2]; 48 and 72 hours): active |
| CCC(=O)Nc1ccc(-c2nc3ccc(Cl)cc3[nH]2)cc1 [TCMDC-143135] | 52.1566 | 46.9478 | 38.7036 | 5.6 | -141.214 | -21.5946 | -76.5792 | -95.9437 | 4.0 | 72 | 4 | 24 | 4 | 5.556 | 52.2 | 47.0 | 38.7 | 52.1566 | 5.3 | 5.4 | t50%_MCC50 ([1]; at MCC50): 24.0 h; tlag_MCC50 ([1]; at MCC50): 4.0 h |
| CCOc1cnn(C)c(=O)c1Nc1ccc(C(=O)NCc2ccc(F)cc2)cc1 [TCMDC-143319] | -74.4049 | -82.6884 | 13.1125 | 0.2 | -4.52 | -105.903 | -82.6884 | -13.3312 | 24.0 | 72 | 24 | 72 | 72 | 0.2058 | -74.4 | -82.7 | 13.1 | -74.4049 | < 4.3 | < 4.3 | MCC50 ([1]; figure 5): 50 µM; 72 pIC50 (trypomastigotes, raw data of Fig 1D) [2]: < 4.3; 48 pIC50 ([2]; figure 1A): < 4.3; 72 pIC50 ([2]; figure 1A): < 4.3; 72 pIC50 ([2]; figure 1B): < 4.3 |
| CCCN1CCN(Cc2ccc(S(=O)(=O)Nc3cccc(C)c3)cc2)CC1.O=C(O)C(F)(F)F.O=C(O)C(F)(F)F [TCMDC-143550] | -35.0895 | 33.2327 | 65.1227 | 0.6 | -2.745 | -35.0895 | 33.2327 | 54.4775 | 24.0 | 72 | 24 | 72 | 24 | 0.6173 | -35.1 | 33.2 | 65.1 | -35.0895 | < 4.3 | < 4.3 | MCC50 ([1]; RoK curve descriptor): 1.9 µM; t50%_Cmax [1]: 72.0 h; t50%_MCC50 ([1]; at MCC50): 72.0 h; tlag_MCC50 ([1]; at MCC50): 24.0 h; MCC50 ([1]; figure 5, in µM): 1.852; 72 pIC50 (trypomastigotes, raw data of Fig 1D) [2]: < 4.3; 48 pIC50 ([2]; figure 1A): < 4.3; 72 pIC50 ([2]; figure 1A): < 4.3; 72 pIC50 ([2]; figure 1B): < 4.3 |
| CCCc1nc2nc(N)nc(N)c2cc1CC [TCMDC-143606] | 41.1896 | 50.5934 | 54.3499 | 0.2 | 30.5298 | 50.9144 | 56.204 | 55.305 | 4.0 | 48 | 4 | 48 | 4 | 0.2058 | 41.2 | 50.6 | 54.4 | 50.9144 | 5.9 | 5.8 | MCC and MCCE values (in words) [1]: low MCC and MCCE values; ME (maximum effect) in RoK assay (in words) [1]: high ME value; tlag times [1]: 4 h; MCC50 ([1]; RoK curve descriptor): 25.9 µM; t50%_Cmax [1]: 60.0 h; t50%_MCC50 ([1]; at MCC50): 48.0 h; tlag_MCC50 ([1]; at MCC50): 4.0 h; MCC50 ([1]; figure 5, in µM): 25.9259 |
